In patent US20110152267A1, “Compositions and Methods for Treating Hyperproliferative Disorders” (Texas Tech University System, priority 2009, published 2011):

Key:
Format in all cases: cell-based, human
[1] = system: U-266 Multiple Myeloma cell line; test: DIMSCAN cytotoxicity, fenretinide + L-threo-sphinganines 3:1 (Example B3); details: 96 h
Procedure: (§1) Cytotoxicity Assay—Once again, cytotoxicity is determined using the DIMSCAN assay system (R. Proffitt et al., Cytometry 24, 204-213 (1996); T. Frgala et al., Mol Cancer Ther. 6:886-97, 2007). The system employs digital imaging microscopy to quantify viable cells, which selectively accumulate fluorescein diacetate to become brightly fluorescent. The system is capable of measuring cytotoxicity over a 4-5 log dynamic range by quenching the residual fluorescence of dead and dying cells with eosin Y and quantifying the total fluorescence of viable cells using digital thresholding. Measured fluorescence is directly proportionate to the number of viable cells. A comparison of the total fluorescence of a drug-treated cell population to the fluorescence of a similar number of untreated cells yields a survival fraction. In brief, 2000 to 10,000 cells/well (depending on size and growth rates) are replicate plated into 60 wells of a 96-well tissue culture plate in 0.1 mL of whole medium and allowed to attach overnight. Drug(s) are then added in 0.05 mL of whole medium to the final concentrations indicated. Drugs (fenretinide, and various chain length L-threo-sphinganines) were tested both as single agents and in a 3:1 ratio of fenretinide:sphinganine. C18-L-threo-sphinganine, or “safingol,” was also tested and results shown for reference. There are 12 wells treated per drug concentration. Twelve wells receive drug vehicle-only to the appropriate final concentration and serve as controls for the plate. Cells are incubated for 96 hours at 37° C. in ambient air with 5% CO2. Fluorescein diacetate is then added to each well in 0.05 mL media to a final concentration of 8 microgram/mL. Cells are incubated for a further 15 minutes at 37° C. and 0.03 mL of 0.5% eosin Y is added to each well. Total fluorescence of viable cells is then measured by digital imaging microscopy. Results were graphed as the ratio of the fluoresecence of drug-treated wells to non-drug treated control wells (i.e., Survival Fraction). All tests were performed at least twice. Representative results are shown.
(§2) The Combination Index (CI) is a term to describe mathematical modeling of the pharmacologic effects on cytotoxicity (cell death) of two drugs in combination based. Cytotoxic “synergy” is defined as a cell death affect which is greater than would be expected from a simple product of the single agent cytotoxicities alone (i.e. an “additive” effect). By Chou-Talalay analysis, a CI<0.9 on a Fraction Affected (“Fa”, i.e. fraction of cells killed) indicates synergy, with smaller numbers indicating greater synergy; a CI of 0.9-1.1 signifies an additive or near-additive effect; and a CI>1.1 means the drug combination is antagonistic.
Fenretinide and L-threo-sphinganines tested in human Multiple Myeloma (a cancer of the blood and bone marrow) cell line, U-266.

[2] = system: SJ-GBM2 Glioblastoma multiforme cell line; test: DIMSCAN cytotoxicity, fenretinide + L-threo-sphinganines 3:1 (Example B7); parameters: key to CI (Combination Index): Chou-Talalay CI: <0.9 synergy, 0.9-1.1 additive, >1.1 antagonism; details: 96 h
Procedure: as §1, §2
Fenretinide and L-threo-sphinganines tested in human Glioblastoma multiforme (brain cancer) cell line, SJ-GBM2.

[3] = system: HT-29 colorectal adenocarcinoma cell line; test: DIMSCAN cytotoxicity, fenretinide + L-threo-sphinganines 3:1 (Example B10); details: 96 h
Procedure: as §1, §2
Fenretinide and L-threo-sphinganines tested in human colorectal adenocarcinoma (colon cancer) cell line, HT-29.

[4] = system: A-2058 melanoma cell line; test: DIMSCAN cytotoxicity, fenretinide + L-threo-sphinganines 3:1 (Example B11); details: 96 h
Procedure: as §1, §2
Fenretinide and L-threo-sphinganines tested in human melanoma (skin cancer) cell line, A-2058.

[5] = system: A-549 lung adenocarcinoma cell line; test: DIMSCAN cytotoxicity, fenretinide + L-threo-sphinganines 3:1 (Example B13); details: 96 h
Procedure: as §1, §2
Fenretinide and L-threo-sphinganines tested in human lung adenocarcinoma (lung cancer) cell line, A-549.

[6] = system: OVCAR-8 ovarian adenocarcinoma cell line; test: DIMSCAN cytotoxicity, fenretinide + L-threo-sphinganines 3:1 (Example B15); parameters: key to CI (Combination Index): Chou-Talalay CI: <0.9 synergy, 0.9-1.1 additive, >1.1 antagonism; details: 96 h
Procedure: as §1, §2
Fenretinide and L-threo-sphinganines tested in human ovarian adenocarcinoma (ovarian cancer) cell line, OVCAR-8.

[7] = system: PC-3 prostate adenocarcinoma cell line; test: DIMSCAN cytotoxicity, fenretinide + L-threo-sphinganines 3:1 (Example B17)
Procedure: as §1, §2
Fenretinide and L-threo-sphinganines tested in human prostate adenocarcinoma (prostate cancer) cell line, PC-3.

[8] = system: PANC-1 pancreatic adenocarcinoma cell line; test: DIMSCAN cytotoxicity, fenretinide + L-threo-sphinganines 3:1 (Example B18)
Procedure: as §1, §2
Fenretinide and L-threo-sphinganines tested in human pancreatic adenocarcinoma (pancreas cancer) cell line, PANC-1.

[9] = 4-HPR 1.5 μM + L-threo-sphinganine 0.5 μM
[10] = 4-HPR 3 μM + L-threo-sphinganine 1 μM
[11] = 4-HPR 6 μM + L-threo-sphinganine 2 μM
[12] = 4-HPR 9 μM + L-threo-sphinganine 3 μM

CCCCCCCCCCCCCCCC[C@H](O)[C@@H](N)CO [C19, (2S,3S)-2-amino-1,3-nonadecanediol]
CI (Combination Index) [1, 9]: 1.0 | Fa (fraction affected) [1, 9]: 0.19 | CI (Combination Index) [1, 10]: 1.4 | Fa (fraction affected) [1, 10]: 0.414 | CI (Combination Index) [1, 11]: 0.9 | Fa (fraction affected) [1, 11]: 0.933 | CI (Combination Index) [1, 12]: 0.3 | Fa (fraction affected) [1, 12]: 0.999 | CI (Combination Index) [2, 9]: >>1 | Fa (fraction affected) [2, 9]: 0.001 | CI (Combination Index) [2, 10]: 0.4 | Fa (fraction affected) [2, 10]: 0.672 | CI (Combination Index) [2, 11]: 0.7 | Fa (fraction affected) [2, 11]: 0.925 | CI (Combination Index) [2, 12]: 0.8 | Fa (fraction affected) [2, 12]: 0.997 | CI (Combination Index) [3, 9]: 1.2 | Fa (fraction affected) [3, 9]: 0.138 | CI (Combination Index) [3, 10]: 1.0 | Fa (fraction affected) [3, 10]: 0.736 | CI (Combination Index) [3, 11]: 0.8 | Fa (fraction affected) [3, 11]: 0.965 | CI (Combination Index) [3, 12]: 0.8 | Fa (fraction affected) [3, 12]: 0.993 | CI (Combination Index) [4, 9]: 2.1 | Fa (fraction affected) [4, 9]: 0.016 | CI (Combination Index) [4, 10]: 1.7 | Fa (fraction affected) [4, 10]: 0.198 | CI (Combination Index) [4, 11]: 1.8 | Fa (fraction affected) [4, 11]: 0.648 | CI (Combination Index) [4, 12]: 0.8 | Fa (fraction affected) [4, 12]: 0.997 | CI (Combination Index) [5, 9]: 1.6 | Fa (fraction affected) [5, 9]: 0.000 | CI (Combination Index) [5, 10]: 0.6 | Fa (fraction affected) [5, 10]: 0.007 | CI (Combination Index) [5, 11]: 0.7 | Fa (fraction affected) [5, 11]: 0.159 | CI (Combination Index) [5, 12]: 0.9 | Fa (fraction affected) [5, 12]: 0.413 | CI (Combination Index) [6, 9]: 0.1 | Fa (fraction affected) [6, 9]: 0.787 | CI (Combination Index) [6, 10]: 0.1 | Fa (fraction affected) [6, 10]: 0.881 | CI (Combination Index) [6, 11]: 0.1 | Fa (fraction affected) [6, 11]: 0.943 | CI (Combination Index) [6, 12]: 0.1 | Fa (fraction affected) [6, 12]: 0.978 | CI [7, 9]: 1.0 | Fa [7, 9]: 0.233 | CI [7, 10]: 1.1 | Fa [7, 10]: 0.406 | CI [7, 11]: 1.1 | Fa [7, 11]: 0.635 | CI [7, 12]: 0.5 | Fa [7, 12]: 0.913 | CI [8, 9]: 1.5 | Fa [8, 9]: 0.182 | CI [8, 10]: 1.8 | Fa [8, 10]: 0.321 | CI [8, 11]: 1.4 | Fa [8, 11]: 0.663 | CI [8, 12]: 0.1 | Fa [8, 12]: 0.997

CCCCCCCCCCCCCCCCC[C@H](O)[C@@H](N)CO [C20, (2S,3S)-2-amino-1,3-icosanediol]
CI (Combination Index) [1, 9]: 1.2 | Fa (fraction affected) [1, 9]: 0.259 | CI (Combination Index) [1, 10]: 1.3 | Fa (fraction affected) [1, 10]: 0.688 | CI (Combination Index) [1, 11]: 0.4 | Fa (fraction affected) [1, 11]: 0.999 | CI (Combination Index) [1, 12]: >0.1 | Fa (fraction affected) [1, 12]: 1.000 | CI (Combination Index) [2, 9]: 0.5 | Fa (fraction affected) [2, 9]: 0.055 | CI (Combination Index) [2, 10]: 0.6 | Fa (fraction affected) [2, 10]: 0.737 | CI (Combination Index) [2, 11]: 0.7 | Fa (fraction affected) [2, 11]: 0.998 | CI (Combination Index) [2, 12]: 0.3 | Fa (fraction affected) [2, 12]: 1.000 | CI (Combination Index) [3, 9]: 0.8 | Fa (fraction affected) [3, 9]: 0.287 | CI (Combination Index) [3, 10]: 0.6 | Fa (fraction affected) [3, 10]: 0.852 | CI (Combination Index) [3, 11]: 0.6 | Fa (fraction affected) [3, 11]: 0.971 | CI (Combination Index) [3, 12]: 0.4 | Fa (fraction affected) [3, 12]: 0.998 | CI (Combination Index) [4, 9]: 0.7 | Fa (fraction affected) [4, 9]: 0.311 | CI (Combination Index) [4, 10]: 1.0 | Fa (fraction affected) [4, 10]: 0.742 | CI (Combination Index) [4, 11]: 1.7 | Fa (fraction affected) [4, 11]: 0.870 | CI (Combination Index) [4, 12]: 0.5 | Fa (fraction affected) [4, 12]: 1.000 | CI (Combination Index) [5, 9]: 2.1 | Fa (fraction affected) [5, 9]: 0.000 | CI (Combination Index) [5, 10]: 4.1 | Fa (fraction affected) [5, 10]: 0.000 | CI (Combination Index) [5, 11]: 1.1 | Fa (fraction affected) [5, 11]: 0.017 | CI (Combination Index) [5, 12]: 1.1 | Fa (fraction affected) [5, 12]: 0.499 | CI (Combination Index) [6, 9]: 0.5 | Fa (fraction affected) [6, 9]: 0.259 | CI (Combination Index) [6, 10]: 0.6 | Fa (fraction affected) [6, 10]: 0.366 | CI (Combination Index) [6, 11]: 0.8 | Fa (fraction affected) [6, 11]: 0.453 | CI (Combination Index) [6, 12]: 0.2 | Fa (fraction affected) [6, 12]: 0.956 | CI [7, 9]: 1.0 | Fa [7, 9]: 0.217 | CI [7, 10]: 1.1 | Fa [7, 10]: 0.393 | CI [7, 11]: 1.2 | Fa [7, 11]: 0.620 | CI [7, 12]: 0.5 | Fa [7, 12]: 0.916 | CI [8, 9]: 1.9 | Fa [8, 9]: 0.136 | CI [8, 10]: 1.9 | Fa [8, 10]: 0.291 | CI [8, 11]: 1.2 | Fa [8, 11]: 0.653 | CI [8, 12]: 0.1 | Fa [8, 12]: 0.990
